In patent publication US10125098B2, “Therapeutic compounds and methods of use thereof” (GENENTECH, INC., priority 2014, dated 2018) one finds IC50 data, which are given here for 22 molecules.

The target of one data set is T1, hNav1.7 (Homo sapiens, UniProt Q15858).
T1 construct: expressed in transfected cells
Nature of the data set: Tritiated compound binding (LBA) to membranes from cells expressing hNav1.7 and the β1 subunit, competitive binding. The following applies: competitive binding vs 100 pM [3H]compound, 18 h, room temperature, membranes with hNav1.7 and β1 subunit. In a few lines:
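Competitive displacement of 100 pM [3H]compound (tritiated methyl analogue of formula (I)) from hNav1.7/β1 membranes, 18 h at room temperature in NaCl/Tris pH 7.4 buffer containing 0.01% BSA. 1 μM unlabeled compound set non-specific binding. Bound label quantified by scintillation after filtration; 4-parameter fit gave IC50.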

A further data set addresses T2, human NaV1.7 (Homo sapiens, UniProt Q15858).
T2 construct: permanently transfected with an expression vector containing the full-length cDNA coding for the desired human sodium channel α-subunit; expressed in transfected cells; host or cells: HEK-293
Nature of the data set: Patch voltage clamp electrophysiology assay (EP), NaV1.7. The following applies: HEK-293 cells stably expressing NaV1.7 with β1 subunit; whole-cell patch clamp, membrane potential −60 mV (inactivated state). It counts as cell-based. In a few lines:
(§1)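 Percent block is the drop in sodium current after compound wash-on, measured by a test pulse following 20 ms at −150 mV from a −60 mV inactivating holding potential.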
For orientation: Patch clamp records ionic current or voltage across a cell membrane.

A further data set has as its target T3, NaV1.5 (Homo sapiens, UniProt Q14524).
T3 construct: permanently transfected with an expression vector containing the full-length cDNA coding for the desired human sodium channel α-subunit; expressed in transfected cells; host or cells: HEK-293
Kind of data set: Patch voltage clamp electrophysiology assay (EP), NaV1.5. The conditions noted are these: HEK-293 cells stably expressing NaV1.5 with β1 subunit, whole-cell patch clamp, membrane potential −60 mV (inactivated state). In kind it is cell-based. Put shortly: as §1

[1] abbreviates: human, HEK-293 cells stably expressing human NaV1.5 with β1 subunit, pH 7.4.

Read-outs that look alike come from different tables or passages of the source.

T3 sequence (Q14524 whole entry): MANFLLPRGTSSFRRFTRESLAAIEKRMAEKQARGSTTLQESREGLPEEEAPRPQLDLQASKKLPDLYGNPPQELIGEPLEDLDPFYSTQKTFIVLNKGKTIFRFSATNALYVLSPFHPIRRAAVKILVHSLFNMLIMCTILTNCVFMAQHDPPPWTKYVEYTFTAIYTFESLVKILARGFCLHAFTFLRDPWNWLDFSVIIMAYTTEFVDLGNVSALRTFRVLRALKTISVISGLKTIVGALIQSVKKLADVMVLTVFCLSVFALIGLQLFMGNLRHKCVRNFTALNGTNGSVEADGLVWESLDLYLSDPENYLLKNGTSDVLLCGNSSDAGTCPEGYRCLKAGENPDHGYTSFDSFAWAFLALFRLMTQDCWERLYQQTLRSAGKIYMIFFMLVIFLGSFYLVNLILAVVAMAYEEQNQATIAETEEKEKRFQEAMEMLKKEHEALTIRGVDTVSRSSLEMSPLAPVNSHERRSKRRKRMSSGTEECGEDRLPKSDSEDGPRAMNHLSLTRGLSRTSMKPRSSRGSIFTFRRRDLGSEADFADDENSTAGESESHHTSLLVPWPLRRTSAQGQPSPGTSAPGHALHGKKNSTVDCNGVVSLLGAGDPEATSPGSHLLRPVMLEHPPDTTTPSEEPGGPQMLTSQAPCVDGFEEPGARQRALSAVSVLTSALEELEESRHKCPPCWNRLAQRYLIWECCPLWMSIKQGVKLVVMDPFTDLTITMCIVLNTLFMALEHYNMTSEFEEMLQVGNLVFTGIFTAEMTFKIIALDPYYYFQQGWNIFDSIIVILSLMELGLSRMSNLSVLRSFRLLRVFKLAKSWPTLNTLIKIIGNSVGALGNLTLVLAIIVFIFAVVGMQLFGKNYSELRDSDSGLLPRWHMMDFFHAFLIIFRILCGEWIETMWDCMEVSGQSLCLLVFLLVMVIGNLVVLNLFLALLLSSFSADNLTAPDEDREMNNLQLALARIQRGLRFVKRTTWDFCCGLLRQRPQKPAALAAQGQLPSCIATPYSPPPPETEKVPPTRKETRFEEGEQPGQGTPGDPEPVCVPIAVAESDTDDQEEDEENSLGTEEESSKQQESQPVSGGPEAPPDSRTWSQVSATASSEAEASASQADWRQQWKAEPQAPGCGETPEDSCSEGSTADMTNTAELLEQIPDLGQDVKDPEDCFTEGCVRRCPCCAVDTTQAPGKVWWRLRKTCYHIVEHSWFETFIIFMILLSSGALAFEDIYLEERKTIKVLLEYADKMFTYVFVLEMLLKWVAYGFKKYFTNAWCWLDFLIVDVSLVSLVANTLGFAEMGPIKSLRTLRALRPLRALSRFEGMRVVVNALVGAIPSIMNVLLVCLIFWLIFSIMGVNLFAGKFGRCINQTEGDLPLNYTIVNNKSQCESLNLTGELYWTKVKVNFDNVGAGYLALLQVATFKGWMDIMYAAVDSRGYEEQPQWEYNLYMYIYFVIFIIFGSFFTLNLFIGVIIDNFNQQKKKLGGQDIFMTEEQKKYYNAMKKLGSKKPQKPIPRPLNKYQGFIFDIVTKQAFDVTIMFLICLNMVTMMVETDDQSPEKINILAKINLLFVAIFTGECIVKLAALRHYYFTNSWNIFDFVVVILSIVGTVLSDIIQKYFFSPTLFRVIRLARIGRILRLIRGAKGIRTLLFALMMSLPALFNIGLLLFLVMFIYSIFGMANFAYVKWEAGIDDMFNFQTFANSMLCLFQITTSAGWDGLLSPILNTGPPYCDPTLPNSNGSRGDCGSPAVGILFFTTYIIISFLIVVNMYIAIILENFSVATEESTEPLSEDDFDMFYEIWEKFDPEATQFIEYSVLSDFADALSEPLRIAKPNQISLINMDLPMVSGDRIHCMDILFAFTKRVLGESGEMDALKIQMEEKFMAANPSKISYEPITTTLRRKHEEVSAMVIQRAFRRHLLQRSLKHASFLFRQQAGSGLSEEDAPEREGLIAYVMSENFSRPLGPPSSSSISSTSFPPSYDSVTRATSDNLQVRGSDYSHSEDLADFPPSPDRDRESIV
T1 sequence (Q15858 1-1977 isoform Q15858-3): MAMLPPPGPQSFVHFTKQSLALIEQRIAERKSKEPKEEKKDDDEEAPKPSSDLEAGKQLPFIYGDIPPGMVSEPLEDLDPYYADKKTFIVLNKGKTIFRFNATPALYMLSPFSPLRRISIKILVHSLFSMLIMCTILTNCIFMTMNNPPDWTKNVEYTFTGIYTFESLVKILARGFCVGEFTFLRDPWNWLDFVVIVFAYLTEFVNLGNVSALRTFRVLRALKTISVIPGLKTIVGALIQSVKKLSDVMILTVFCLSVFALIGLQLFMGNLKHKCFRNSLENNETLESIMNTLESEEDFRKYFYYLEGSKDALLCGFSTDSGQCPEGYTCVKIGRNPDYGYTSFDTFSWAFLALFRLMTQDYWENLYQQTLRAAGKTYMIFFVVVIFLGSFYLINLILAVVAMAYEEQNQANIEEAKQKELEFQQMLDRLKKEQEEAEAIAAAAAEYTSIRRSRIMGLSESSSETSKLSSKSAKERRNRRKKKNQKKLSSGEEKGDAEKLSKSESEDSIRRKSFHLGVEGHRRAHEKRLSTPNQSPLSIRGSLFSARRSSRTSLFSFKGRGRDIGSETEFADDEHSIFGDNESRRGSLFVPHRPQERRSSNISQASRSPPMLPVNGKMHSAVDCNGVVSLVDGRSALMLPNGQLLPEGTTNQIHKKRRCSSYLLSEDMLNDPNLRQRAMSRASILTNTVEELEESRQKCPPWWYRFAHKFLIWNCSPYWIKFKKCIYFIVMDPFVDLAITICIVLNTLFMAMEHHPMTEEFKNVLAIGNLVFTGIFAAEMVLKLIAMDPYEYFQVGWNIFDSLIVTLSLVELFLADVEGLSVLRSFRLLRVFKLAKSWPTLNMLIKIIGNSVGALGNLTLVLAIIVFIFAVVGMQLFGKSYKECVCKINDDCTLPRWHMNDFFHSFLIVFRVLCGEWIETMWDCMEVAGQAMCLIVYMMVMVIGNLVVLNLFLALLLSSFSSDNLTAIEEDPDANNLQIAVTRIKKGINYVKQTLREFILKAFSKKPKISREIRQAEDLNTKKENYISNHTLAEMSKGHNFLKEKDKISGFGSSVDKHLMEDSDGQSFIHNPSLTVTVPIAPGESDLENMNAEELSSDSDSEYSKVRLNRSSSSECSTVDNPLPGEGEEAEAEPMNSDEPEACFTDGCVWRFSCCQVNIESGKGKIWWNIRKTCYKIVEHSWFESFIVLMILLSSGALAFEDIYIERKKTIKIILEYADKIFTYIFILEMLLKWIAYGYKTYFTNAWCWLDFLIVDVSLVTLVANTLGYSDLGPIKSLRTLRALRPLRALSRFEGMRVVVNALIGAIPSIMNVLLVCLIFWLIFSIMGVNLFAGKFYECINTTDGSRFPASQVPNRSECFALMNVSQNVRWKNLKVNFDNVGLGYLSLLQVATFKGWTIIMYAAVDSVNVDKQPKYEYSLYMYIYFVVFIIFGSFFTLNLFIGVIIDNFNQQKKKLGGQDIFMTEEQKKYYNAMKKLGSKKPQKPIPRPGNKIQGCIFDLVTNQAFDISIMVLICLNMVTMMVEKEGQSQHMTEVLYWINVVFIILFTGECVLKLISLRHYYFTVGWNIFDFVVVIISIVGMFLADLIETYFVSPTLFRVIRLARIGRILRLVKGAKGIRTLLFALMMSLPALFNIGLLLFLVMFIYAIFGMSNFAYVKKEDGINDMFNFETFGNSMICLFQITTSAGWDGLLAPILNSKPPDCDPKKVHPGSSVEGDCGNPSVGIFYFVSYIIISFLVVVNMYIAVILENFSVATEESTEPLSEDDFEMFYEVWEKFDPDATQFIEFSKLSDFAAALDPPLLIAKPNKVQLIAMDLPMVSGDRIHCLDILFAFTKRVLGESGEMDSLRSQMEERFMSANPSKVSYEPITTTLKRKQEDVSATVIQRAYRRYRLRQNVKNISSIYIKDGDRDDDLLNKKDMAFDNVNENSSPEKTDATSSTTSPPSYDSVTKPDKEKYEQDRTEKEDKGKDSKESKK
T1 sequence (Q07699 19-218 partner): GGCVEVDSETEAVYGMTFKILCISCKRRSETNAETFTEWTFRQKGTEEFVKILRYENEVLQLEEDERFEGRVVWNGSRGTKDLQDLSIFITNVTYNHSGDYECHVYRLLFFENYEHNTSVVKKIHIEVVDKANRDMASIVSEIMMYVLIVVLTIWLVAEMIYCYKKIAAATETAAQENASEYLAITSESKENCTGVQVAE
T2 sequence (Q15858 1-1977 isoform Q15858-3): as the sequence (Q15858 1-1977 isoform Q15858-3) above
T2 sequence (Q07699 19-218 partner): as the sequence (Q07699 19-218 partner) above

Consider `C[C@H]1C[C@@H](C(=O)O)N(C(=O)c2cc(C3CC3)c(OCC34CC5CC(CC(C5)C3)C4)cc2F)C1` [Example 148, (2S,4S)-1-[4-(1-adamantylmethoxy)-5-cyclopropyl-2-fluoro-benzoyl]-4-methyl-pyrrolidine-2-carboxylic acid], for which the results for the IC50 on hNav1.7, against human NaV1.7 and at NaV1.5 (read-out: Nav1.5) were 49 nM, 620 nM and 17 µM, respectively.
As to `C[C@H]1CCN(C(=O)c2cc(C3CC3)c(OCC34CC5CC(CC(C5)C3)C4)cc2F)[C@@H]1C(=O)O` [Example 149, (2S,3S)-1-[4-(1-adamantylmethoxy)-5-cyclopropyl-2-fluoro-benzoyl]-3-methyl-pyrrolidine-2-carboxylic acid], the results for the IC50 on hNav1.7, against human NaV1.7 and at NaV1.5 (read-out: Nav1.5) were 10 nM, 300 nM and 17 µM, respectively.
On the same counts, the results for `C[C@@H]1C[C@@H](C(=O)O)N(C(=O)c2cc(C3CC3)c(OCC34CC5CC(CC(C5)C3)C4)cc2F)C1` [Example 150, (2S,4R)-1-[4-(1-adamantylmethoxy)-5-cyclopropyl-2-fluoro-benzoyl]-4-methyl-pyrrolidine-2-carboxylic acid] are 85 nM, 1200 nM and 19 µM.
In the same order, the values of `CC1(C)SCN(C(=O)c2cc(C3CC3)c(OCC34CC5CC(CC(C5)C3)C4)cc2F)[C@@H]1C(=O)O` [Example 155, (4R)-3-[4-(1-adamantylmethoxy)-5-cyclopropyl-2-fluoro-benzoyl]-5,5-dimethyl-thiazolidine-4-carboxylic acid] are 68 nM, 900 nM and 9.3 µM.
In the same order, the values of `C[C@@H](c1cc(Cl)cc(Cl)c1)N1CCC(COc2cc(F)c(C(=O)N3[C@@H]4C[C@@H]4C[C@H]3C(=O)O)cc2C2CC2)CC1` [Example 156, (1R,3S,5R)-4-[5-cyclopropyl-4-[[1-[(1S)-1-(3,5-dichlorophenyl)ethyl]-4-piperidyl]methoxy]-2-fluoro-benzoyl]-4-azabicyclo[3.1.0]hexane-3-carboxylic acid] are 830 nM, 3100 nM and 17 µM.
`C[C@@H](c1cc(Cl)cc(Cl)c1)N1CCC(COc2cc(F)c(C(=O)N3CSC[C@H]3C(=O)O)cc2C2CC2)CC1` [Example 159, (4R)-3-[5-cyclopropyl-4-[[1-[(1S)-1-(3,5-dichlorophenyl)ethyl]-4-piperidyl]methoxy]-2-fluoro-benzoyl]thiazolidine-4-carboxylic acid]: the values for the IC50 on hNav1.7, on human NaV1.7 and at NaV1.5 (read-out: Nav1.5) were 80 nM, 1000 nM and 17 µM, respectively.
Take `O=C(O)[C@@H]1CC(F)(F)CN1C(=O)c1cc(C2CC2)c(OCC23CC4CC(CC(C4)C2)C3)cc1F` [Example 160, (2S)-1-[4-(1-adamantylmethoxy)-5-cyclopropyl-2-fluoro-benzoyl]-4,4-difluoro-pyrrolidine-2-carboxylic acid]: the IC50 at hNav1.7 came out at 35 nM; on human NaV1.7, 640 nM; on NaV1.5 (read-out: Nav1.5), 16 µM.
With `O=C(O)[C@@H]1C[C@H](O)CN1C(=O)c1cc(C2CC2)c(OCC23CC4CC(CC(C4)C2)C3)cc1F` [Example 161, (2S,4S)-1-[4-(1-adamantylmethoxy)-5-cyclopropyl-2-fluoro-benzoyl]-4-hydroxy-pyrrolidine-2-carboxylic acid], the IC50 at hNav1.7 was 390 nM; on human NaV1.7, 980 nM; at NaV1.5 (setting [1]), not below 30 µM.
Take `C[C@H]1OCN(C(=O)c2cc(C3CC3)c(OCC34CC5CC(CC(C5)C3)C4)cc2F)[C@@H]1C(=O)O` [Example 162, (4S,5R)-3-[4-(1-adamantylmethoxy)-5-cyclopropyl-2-fluoro-benzoyl]-5-methyl-oxazolidine-4-carboxylic acid]: the IC50 was 7.3 nM at hNav1.7, 94 nM against human NaV1.7 and 5.7 µM on NaV1.5 (read-out: Nav1.5).
Consider `C[C@@H]1OCN(C(=O)c2cc(C3CC3)c(OCC34CC5CC(CC(C5)C3)C4)cc2F)[C@H]1C(=O)O` [Example 163, (4R,5S)-3-[4-(1-adamantylmethoxy)-5-cyclopropyl-2-fluoro-benzoyl]-5-methyl-oxazolidine-4-carboxylic acid], for which the IC50 at hNav1.7 was 120 nM; at human NaV1.7 it was 820 nM; at NaV1.5 (read-out: Nav1.5), 4.7 µM.
In the same order, the values of `C[C@H]1OCN(C(=O)c2cc(C3CC3)c(OCC3CCN([C@@H](C)c4cc(Cl)cc(Cl)c4)CC3)cc2F)[C@@H]1C(=O)O` [Example 164, (4S,5R)-3-[5-cyclopropyl-4-[[1-[(1S)-1-(3,5-dichlorophenyl)ethyl]-4-piperidyl]methoxy]-2-fluoro-benzoyl]-5-methyl-oxazolidine-4-carboxylic acid] are 25 nM, 62 nM and 13 µM.
On the same counts, the results for `CC1O[C@H](C)[C@@H](C(=O)O)N1C(=O)c1cc(C2CC2)c(OCC23CC4CC(CC(C4)C2)C3)cc1F` (stereo partly drawn) [Example 166, (4S,5R)-3-[4-(1-adamantylmethoxy)-5-cyclopropyl-2-fluoro-benzoyl]-2,5-dimethyl-oxazolidine-4-carboxylic acid] are 90 nM, 750 nM and 13 µM.
On the same counts, the results for `O=C(O)C1=CCCN1C(=O)c1cc(C2CC2)c(OCC23CC4CC(CC(C4)C2)C3)cc1F` [Example 167, 1-[4-(1-adamantylmethoxy)-5-cyclopropyl-2-fluoro-benzoyl]-2,3-dihydropyrrole-5-carboxylic acid] are 190 nM, 660 nM and 28 µM.
For `CC[C@H]1CCN(C(=O)c2cc(C3CC3)c(OCC34CC5CC(CC(C5)C3)C4)cc2F)[C@@H]1C(=O)O` [Example 168a, (2S,3S)-1-[4-(1-adamantylmethoxy)-5-cyclopropyl-2-fluoro-benzoyl]-3-ethyl-pyrrolidine-2-carboxylic acid], the IC50 was 610 nM on hNav1.7, 3300 nM against human NaV1.7 and 6.8 µM on NaV1.5 (read-out: Nav1.5).
In the same order, the values of `CC[C@@H]1CCN(C(=O)c2cc(C3CC3)c(OCC34CC5CC(CC(C5)C3)C4)cc2F)[C@H]1C(=O)O` [Example 168b, (2R,3R)-1-[4-(1-adamantylmethoxy)-5-cyclopropyl-2-fluoro-benzoyl]-3-ethyl-pyrrolidine-2-carboxylic acid] are 180 nM, 1300 nM and 8.2 µM.
On the same counts, the results for `C[C@@H](c1cc(Cl)cc(Cl)c1)N1CCC(COc2cc(F)c(C(=O)N3C[C@H](Cl)C[C@H]3C(=O)O)cc2C2CC2)CC1` [Example 169, (2S,4R)-4-chloro-1-(5-cyclopropyl-4-((1-((S)-1-(3,5-dichlorophenyl)ethyl)piperidin-4-yl)methoxy)-2-fluorobenzoyl)pyrrolidine-2-carboxylic acid] are 91 nM, 780 nM and 13 µM.
On the same counts, the results for `O=C(N[C@H](C(=O)O)C1CCC1)c1cc(C2CC2)c(OCC23CC4CC(CC(C4)C2)C3)cc1F` [Example 170, (2S)-2-[[4-(1-adamantylmethoxy)-5-cyclopropyl-2-fluorobenzoyl]amino]-2-cyclobutyl-acetic acid] are 260 nM, 3800 nM and 3.7 µM.
Turning to `CC(c1cc(Cl)cc(Cl)c1)N1CCC(COc2cc(F)c(C(=O)N3[C@@H](C(=O)O)C[C@H]4CCC[C@H]43)cc2C2CC2)CC1` (stereo partly drawn) [Example 172, (2R,3R,6R)-1-(5-cyclopropyl-4-((1-((R)-1-(3,5-dichlorophenyl)ethyl)piperidin-4-yl)methoxy)-2-fluorobenzoyl)octahydrocyclopenta[b]pyrrole-2-carboxylic acid], the IC50 worked out at 1000 nM at hNav1.7, 4200 nM on human NaV1.7 and 14 µM at NaV1.5 (read-out: Nav1.5).
On the same counts, the results for `O=C(O)[C@@H]1C[C@@H](F)CN1C(=O)c1cc(C2CC2)c(OCC2CCN(Cc3cc(Cl)cc(C(F)(F)F)c3)CC2)cc1F` [Example 173, (2S,4R)-1-(4-((1-(3-chloro-5-(trifluoromethyl)benzyl)piperidin-4-yl)methoxy)-5-cyclopropyl-2-fluorobenzoyl)-4-fluoropyrrolidine-2-carboxylic acid] are 65 nM, 330 nM and 23 µM.
As to `CC(c1ccc(Cl)cc1Cl)N1CCC(COc2cc(F)c(C(=O)N3C[C@H](F)C[C@H]3C(=O)O)cc2C2CC2)CC1` (stereo partly drawn) [Example 174], the IC50 on hNav1.7 was 26 nM; against human NaV1.7, 340 nM; on NaV1.5 (setting [1]), not below 30 µM.
In the same order, the values of `O=C(O)[C@@H]1C[C@@H](F)CN1C(=O)c1cc(C2CC2)c(OCC2CCN(Cc3ccc(Cl)c(Cl)c3)CC2)cc1F` [Example 175, (2S,4R)-1-(5-cyclopropyl-4-((1-(3,4-dichlorobenzyl)piperidin-4-yl)methoxy)-2-fluorobenzoyl)-4-fluoropyrrolidine-2-carboxylic acid] are 110 nM, 1200 nM and not below 30 µM.
For the molecule `O=C(c1cc(C2CC2)c(OCC23CC4CC(CC(C4)C2)C3)cc1F)N1CC2CC1(C(=O)O)C2` [Example 176, 3-[4-(1-adamantylmethoxy)-5-cyclopropyl-2-fluoro-benzoyl]-3-azabicyclo[2.1.1]hexane-4-carboxylic acid], the figures for the IC50 on hNav1.7, on human NaV1.7 and on NaV1.5 (read-out: Nav1.5) were 360 nM, 1300 nM and 7.2 µM, respectively.
